Test results from PubChem BioAssay (NCI).
Where “and” joins values, the source holds several entries; their conditions need not be identical. Equal values may be shown once.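 Assay format: 96-well plates, 48-hour exposure. The concentration for 50% growth inhibition is given as GI50. The concentration for full growth arrest is given as TGI.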

How the values were obtained:
Assay in all cases: growth of human tumour cells (NCI), 48 h
[1] = test system: OVCAR-5 ovarian
[2] = test system: RPMI-8226 leukemia
[3] = test system: UACC-62 melanoma
[4] = test system: OVCAR-8 ovarian
[5] = test system: HOP-92 NSCLC
[6] = test system: NCI-H460 lung
[7] = test system: HCT-116 colon
[8] = test system: OVCAR-3 ovarian
[9] = test system: SNB-75 CNS
[10] = test system: HT29 colon

Row | SMILES | TGI [1] | TGI [2] | TGI [3] | TGI [4] | TGI [5] | TGI [6] | TGI [7] | TGI [8] | TGI [9] | TGI [10] | GI50 [1] | GI50 [2] | GI50 [3] | GI50 [4] | GI50 [5] | GI50 [6] | GI50 [7] | GI50 [8] | GI50 [9] | GI50 [10]
1 | COc1ccc2c(=O)cc(-c3ccncc3)oc2c1OC | > 100 µM | > 100 µM | 32.3 µM | > 100 µM | 55.2 µM | 72.8 µM | > 100 µM | 64.8 µM | 41 µM | > 100 µM | – | – | – | – | – | – | – | – | – | –
2 | COC(=O)[C@@]12OC[C@]34[C@H]([C@@H](O)[C@@H]1O)[C@@]1(C)[C@H](O)C(=O)C=C(C)[C@@H]1C[C@H]3OC(=O)C(OC(C)=O)[C@@H]24 (some centres undefined) | 0.41 µM | 0.0396 µM | 0.142 µM | 0.266 µM | 0.309 µM | 0.0524 µM | 0.0503 µM | 0.0714 µM | 0.121 µM | 0.136 µM | 69 nM | 17 nM | 24.5 nM | 37.1 nM | 36.4 nM | 0.0183 µM | 22 nM | 24.8 nM | 27.3 nM | 30.3 nM
3 | COc1cc2ccccc2oc1=O | > 100 µM | > 100 µM | > 100 µM | > 100 µM | > 100 µM | > 100 µM | > 100 µM | > 100 µM | > 100 µM | > 100 µM | – | – | – | – | – | – | – | – | – | –
4 | C=C1/C(=C\C=C2/CCC[C@]3(C)[C@@H]([C@H](C)CCCC(C)(C)O)CC[C@@H]23)C[C@@H](OC(=O)CBr)C[C@@H]1O | 19.3 µM | 2.48 µM | 9.84 µM | 30.5 µM | 0.445 µM | 28 µM | 5.9 µM | 1.23 µM | 0.109 µM | 10.5 µM | 1550 nM | 293 nM | 3290 nM | 2120 nM | 138 nM | 12 µM | 2220 nM | 395 nM | < 11.6 nM | 1150 nM
5 | O=[N+]([O-])c1ccc2c(c1)Cc1cc(N=Cc3ccc4c(c3)OCO4)ccc1-2 | > 100 µM | > 100 µM | > 100 µM | > 100 µM | > 100 µM | > 100 µM | > 100 µM | > 100 µM | > 100 µM | > 100 µM | – | – | – | – | – | – | – | – | – | –
6 | c1csc(-c2cn3nc(-c4c[nH]c5ccccc45)sc3n2)c1 | 76.4 µM | 15.4 µM | 18.7 µM | > 100 µM | > 100 µM | > 100 µM | 70.6 µM | 9.02 µM | 8.09 µM | 10.2 µM | 4270 nM | 1470 nM | 738 nM | 2720 nM | 5460 nM | 0.574 µM | 627 nM | 924 nM | 445 nM | 413 nM
7 | CCN(CC)CCOc1ccc(CCc2cc(OC)c(OC)c(OC)c2)cc1 | 65.3 µM | 51.5 µM | 66.3 µM | > 100 µM | 82.6 µM | > 100 µM | > 100 µM | > 100 µM | 94.5 µM | 39 µM | – | – | – | – | – | – | – | – | – | –
8 | COc1cc([C@@H]2c3cc4c(cc3[C@@H](OC(=O)c3ccc(N)cc3)C3COC(=O)[C@@H]32)OCO4)cc(OC)c1O (some centres undefined) | > 95 µM | 58 µM | 19.5 µM | 78.5 µM | 20.7 µM | 46.7 µM | > 95 µM | 35 µM | 36.4 µM | 21.2 µM | – | – | – | – | – | – | – | – | – | –
9 | O=C1C2C3C=C4c5ccccc5N(c5ccccc5)C4(C2C(=O)N1c1ccc(Cl)cc1)[C@H]1C(=O)N(c2ccc(Cl)cc2)C(=O)[C@@H]31 (some centres undefined) | > 100 µM | > 100 µM | > 100 µM | > 100 µM | > 100 µM | > 100 µM | > 100 µM | > 100 µM | > 100 µM | > 100 µM | – | – | – | – | – | – | – | – | – | –
10 | Cc1cc(NCCN(C(C)C)C(C)C)nc(/N=C(\N)Nc2ccc(Cl)c(C(F)(F)F)c2)n1 | 5.24 µM | 0.662 µM | 0.417 µM | 0.812 µM | 1.01 µM | 1.62 µM | 2.38 µM | 2.77 µM | 1.03 µM | 0.919 µM | 2360 nM | 220 nM | 198 nM | 275 nM | 163 nM | 0.463 µM | 275 nM | 1320 nM | 449 nM | 267 nM
11 | O=C(Nc1ccncc1)C(=O)c1cn(Cc2ccc(Cl)cc2)c2ccccc12 | > 100 µM | > 100 µM | > 100 µM | > 100 µM | > 75.1 µM | > 100 µM | > 100 µM | 0.0652 µM | 3.79 µM | > 100 µM | 223 nM | 41.6 nM | 51.4 nM | 54.9 nM | 48.9 nM | 0.0585 µM | 48 nM | 26.7 nM | 37.5 nM | 36.3 nM
12 | O=C(NC(=O)c1cn(CCN(CCO)C(=O)NCCCCCCNC(=O)N(CCO)CCn2cc(C(=O)NC(=O)OCc3ccccc3)c(=O)[nH]c2=O)c(=O)[nH]c1=O)OCc1ccccc1 | > 100 µM | > 100 µM | > 100 µM | > 100 µM | > 100 µM | > 100 µM | > 100 µM | > 100 µM | > 100 µM | > 100 µM | – | – | – | – | – | – | – | – | – | –
13 | COc1cc(NC(C)CCCN)c2ncccc2c1 (centres undefined) | > 100 µM | > 100 µM | 51.9 µM and > 89.5 µM | > 100 µM | > 100 µM | > 100 µM | > 100 µM | 84.2 µM and > 100 µM | > 100 µM and 80.5 µM | > 95.4 µM | – | – | 20300 nM and 45300 nM | – | 27200 nM and 62600 nM | 32.8 µM and > 94.8 µM | 34600 nM and 75800 nM | – | – | –
14 | NC(=O)c1ccc(I)c(N=O)c1 | > 100 µM | 88.7 µM | > 100 µM | 60.6 µM | > 100 µM | > 100 µM | 32.8 µM | 71.5 µM | 69.4 µM | 39.5 µM | 71900 nM | 36900 nM | 40500 nM | 25800 nM | 67100 nM | 62.6 µM | 18600 nM | 27400 nM | 19900 nM | 20600 nM
15 | COc1cccc(-c2nn(-c3ccccc3)cc2-c2ccnc(NCCCNC(=O)Nc3ccc(Cl)c(Cl)c3)c2)c1 | 25.4 µM | 5.37 µM | 4 µM | 13.4 µM | 7.68 µM | 14.7 µM | 5.75 µM | 17.3 µM | 19.2 µM | 5.19 µM | 3530 nM | 2130 nM | 1910 nM | 3220 nM | 2320 nM | 3.76 µM | 2330 nM | 4570 nM | 2520 nM | 2550 nM
16 | CC1OC(OC2C[C@](O)(C(=O)CF)Cc3c(O)c4c(c(O)c32)C(=O)c2ccccc2C4=O)CC(N)C1O (some centres undefined) | 0.541 µM | 0.132 µM | 0.117 µM | 0.231 µM | 0.805 µM | 0.031 µM | 0.388 µM | 1.49 µM | 0.09 µM | 0.0905 µM | – | – | – | – | – | – | – | – | – | –
17 | N.N.N.N.N.[Cl-].[Co+3].c1ccc(-c2nn[n-]n2)cc1 | > 100 µM | > 100 µM | > 100 µM | > 100 µM | > 100 µM | > 100 µM | > 100 µM | > 100 µM | > 100 µM | > 100 µM | > 100000 nM | > 100000 nM | > 100000 nM | > 100000 nM | > 100000 nM | > 100 µM | > 100000 nM | > 100000 nM | > 100000 nM | > 100000 nM
